# Measured values taken from patent publication US4005217A, “Treatment of helminth infections with substituted phenyl-thiourea derivatives” (May & Baker Limited, priority 1970, dated 1977).
# Where a name gives a salt, the structure may show the parent alone. Read-outs that look alike come from different tables or passages of the source.
# How the values were obtained:
# [1] = tested on: Nippostrongylus brasiliensis; assay: Test 2: activity against roundworms in rats, treatment 24 hours after infection, worm counts 6 days after dosing; format: in vivo
# Description: Test 2 -- Rats were infected with 100 Nippostrongylus brasiliensis larvae each, by the subcutaneous route. After 24 hours the rats were randomised and allotted to groups of 5 animals each, ready for treatment. Doses of the test compound were then administered to each group by the oral, subcutaneous and intraperitoneal routes respectively, one group of 10 animals being left untreated as a control. All the rats were killed for post-mortem worm counts 6 days after dosing. The activities, expressed in terms of the percentage reductions in mean worm load of the treated groups or damage to the worms compared with the untreated control group, are given below in Table I.
# [2] = tested on: Nippostrongylus brasiliensis eggs; assay: In vitro activity against roundworms (egg hatching and larvae); format: cell-based; conditions: 96 h, tested at 100, 10, 1 and 0.1 μg/ml, inhibited or delayed hatching of eggs, or killed, retarded growth or reduced activity of larvae during 4 days, read-out: M.I.C. (minimum inhibitory concentration)
# Description: Compounds of formula I were tested at concentrations of 100 μg/ml, 10 μg/ml, 1 μg/ml and 0.1 μg/ml in small glass containers. If the compound was not soluble in water, a volatile organic medium, e.g. acetone, chloroform, ethanol or methanol was used. An amount of material appropriate for each final concentration was measured and placed in duplicate test containers and if an organic solvent was used it was allowed to evaporate completely. Nippostrongylus brasiliensis eggs were recovered by saturated saline centrifugal flotation from the faeces of rats heavily infected with third stage larvae six days previously. They were washed several times in water and suspended in water in a suitable concentration. From 25-50 eggs were placed in each container and the final volume was made up by the addition of a very dilute aqueous suspension of mouse faeces which served as the growth medium. The minimum inhibitory concentrations of each compound (M.I.C.), shown in the following Table V was the minimum concentration in μg/ml total liquid volume at which it inhibited or delayed hatching of eggs, or at which it killed, retarded growth or reduced activity of larvae during the 4 days after beginning the test.
# [3] = tested on: Nippostrongylus brasiliensis; assay: Test 1: activity against roundworms in rats, treatment 6 days after infection (patent infection), worm counts 48 hours after treatment; format: in vivo
# Description: Test 1 - Rats were infected with 100 Nippostrongylus brasiliensis larvae each, by the subcutaneous route. After 6 days, when the infection was patent, the rats were randomised and alloted to groups of 10 animals each, ready for treatment. One group was used for each dose level of the test compound and, in each experiment, one group was left untreated as a control. All the rats were killed for post-mortem worm counts 48 hours after treatment. The activity, expressed in terms of the percentage reduction in mean worm load of the treated group compared with the untreated group, is shown in Table I.
# [4] = tested on: influenza virus type A2 /Hong Kong/5/68; format: in vivo; conditions: mice, 250 mg/kg oral 3 hours before and 1 hour after infection; pooled lungs 24 hours after infection; greatest dilution producing agglutination
# [5] = Nippostrongylus brasiliensis, 144 h, rats, Test 2, 1000 mg/kg oral, read-out: Percentage reduction in N.brasiliensis load
# [6] = Nippostrongylus brasiliensis, ip, 144 h, rats, Test 2, 250 mg/kg intraperitoneal, read-out: Percentage reduction in N.brasiliensis load
# [7] = Nippostrongylus brasiliensis, sc, 144 h, rats, Test 2, 250 mg/kg subcutaneous, read-out: Percentage reduction in N.brasiliensis load
# [8] = Nippostrongylus brasiliensis, po, 48 h, Test 1, 1000 mg/kg oral, read-out: Percentage reduction in N.brasiliensis load
Structure (SMILES),"inhibition in vivo at 1000 mg/kg [1, 5] [%]",MIC [2] [mg/L],"inhibition in vivo at 1000 mg/kg [3, 8] [%]",further results
CCOC(=O)NC(=S)Nc1cc(NC(=O)OC(C)C)ccc1NC(=O)CN(C)C [1-ethoxycarbonyl-3-(2-dimethylaminoacetamido-5-isopropoxycarbonylaminophenyl)-thiourea hydrochloride],100,100,–,"inhibition in vivo at 250 mg/kg [1, 6]: 50%; inhibition in vivo at 250 mg/kg [1, 7]: 60%"
CCCCc1ccc(NC(=S)NC(=O)OC)c(NC(=O)OCC)c1 [1-methoxycarbonyl-3-(4-n-butyl-2-ethoxycarbonylaminophenyl)thiourea],–,0.1,–,"inhibition in vivo at 500 mg/kg ([3]; Nippostrongylus brasiliensis, po, 48 h, Test 1, 500 mg/kg oral, read-out: Percentage reduction in N.brasiliensis load): 40%; worm damage ([3]; Test 1, 500 mg/kg oral): worm damage"
"CCOC(=O)NC(=S)Nc1ccccc1NC(=O)CN1C[C@@H](C)O[C@@H](C)C1 [1-ethoxycarbonyl-3-[2-(2,6-cis-dimethylmorpholinoacetamido)phenyl]thioureahydrochloride]",–,0.1,–,"inhibition in vivo at 250 mg/kg [1, 6]: 93%; inhibition in vivo at 250 mg/kg [1, 7]: 95%"
CCOC(=O)NC(=S)Nc1cc(NC(=O)OC)ccc1NC(=O)CN(C)C [1-ethoxycarbonyl-3-(2-dimethylaminoacetamido-5-methoxycarbonylaminophenyl)thiourea hydrochloride],100,–,–,–
COC(=O)NC(=S)Nc1ccc(C(C)=O)cc1N [1-methoxycarbonyl-3-(4-acetyl-2-aminophenyl)thiourea],73,–,–,"worm damage ([1]; rats, Test 2, 1000 mg/kg oral): worm damage"
COC(=O)NC(=S)Nc1ccc(C)cc1N [1-methoxycarbonyl-3-(2-amino-4-methylphenyl)thiourea],97,100,–,"worm damage ([1]; rats, Test 2, 1000 mg/kg oral): worm damage"
CCOC(=O)NC(=S)Nc1ccccc1NC(=O)CN(CC)CC [1-ethoxycarbonyl-3-(2-diethylaminoacetamidophenyl)thiourea hydrochloride],100,0.1,44,"inhibition in vivo at 250 mg/kg [1, 6]: 99%; inhibition in vivo at 250 mg/kg [1, 7]: 95%"
COC(=O)NC(=S)Nc1ccc(NC(=O)OC(C)C)cc1NC(C)=O [1-methoxycarbonyl-3-(2-acetamido-4-isopropoxycarbonylaminophenyl)thiourea],–,–,–,Haemagglutinin titre-treated animals [4]: 1/256
COC(=O)NC(=S)Nc1ccccc1NC(=O)C=CC(=O)O [1-methoxycarbonyl-3-[2-(3-carboxyacrylamido)phenyl]thiourea],99,1,–,–
CCCCOC(=O)NC(=S)Nc1ccccc1N [1-butoxycarbonyl-3-(2-aminophenyl)thiourea],–,1,–,–
CCOC(=O)NC(=S)Nc1ccccc1NC(=O)CN1CCOCC1 [1-ethoxycarbonyl-3-(2-morpholinoacetamidophenyl)thiourea hydrochloride],99,0.1,–,–
COC(=O)NC(=S)Nc1ccccc1N.Cc1ccc(S(=O)(=O)O)cc1 [1-methoxycarbonyl-3-(2-aminophenyl)thiourea toluene-p-sulphonate],–,–,–,"Percentage reduction in N.brasiliensis load ([3]; Test 1, 1000 mg/kg oral): 98%; Percentage reduction in N.brasiliensis load ([1]; rats, Test 2, 1000 mg/kg oral): 99%"
CCOC(=O)NC(=S)Nc1ccccc1NC(=O)CN1CCCCC1 [1-ethoxycarbonyl-3-(2-piperidinoacetamidophenyl)thiourea hydrochloride],98,1,85,–
CCOC(=O)NC(=S)Nc1ccccc1NC(=O)CN1CCN(C)CC1.Cl [1-ethoxycarbonyl-3-[2-(4-methylpiperazin-1-ylacetamido)phenyl]thiourea hydrochloride],100,0.1,–,"worm damage ([3]; Test 1, 1000 mg/kg oral): worm damage; inhibition in vivo at 250 mg/kg [1, 6]: 98%; inhibition in vivo at 250 mg/kg [1, 7]: 93%"
CCOCCOC(=O)NC(=S)Nc1ccccc1N [1-(2-ethoxyethoxycarbonyl)-3-(2-aminophenyl)thiourea],90,–,–,"worm damage ([1]; rats, Test 2, 1000 mg/kg oral): worm damage"
COC(=O)NC(=S)Nc1cc(NC(=O)OC(C)C)ccc1NC(C)=O [1-methoxycarbonyl-3-(2-acetamido-5-isopropoxycarbonylaminophenyl)thiourea],–,–,–,Haemagglutinin titre-treated animals [4]: 1/128
CCOC(=O)NC(=S)Nc1ccc(NC(=O)OC(C)C)cc1NC(C)=O [1-ethoxycarbonyl-3-(2-acetamido-4-isopropoxycarbonylaminophenyl)thiourea],62,–,–,–
CCOC(=O)NC(=S)Nc1ccccc1NC(=O)C(C)N(C)C (racemic) [1-ethoxycarbonyl-3[2-(1-dimethylaminoethylcarbonylamino)phenyl]thiourea],100,–,97,–
COC(=O)NC(=S)Nc1ccccc1N.O=[N+]([O-])O [1-methoxycarbonyl-3-(2-aminophenyl)thiourea nitrate],–,–,–,"Percentage reduction in N.brasiliensis load ([3]; Test 1, 1000 mg/kg oral): 99%; inhibition in vivo at 1000 mg/kg ([1]; Nippostrongylus brasiliensis, po, 144 h, read-out: Percentage reduction in N.brasiliensis load, rats, Test 2, 1000 mg/kg oral): 99%"
CCCCN(CCCC)CC(=O)Nc1ccccc1NC(=S)NC(=O)OCC [1-ethoxycarbonyl-3-(2-di-n-butylaminoacetamidophenyl)thiourea hydrochloride],97,0.1,–,–
CCOC(=O)Nc1ccc(NC(=S)NC(=O)OC)c(N)c1 [1-methoxycarbonyl-3-(2-amino-4-ethoxycarbonylaminophenyl)thiourea],99,10,–,–
COC(=O)NC(=S)Nc1ccccc1NC(=O)CCN(C)C.Cl [1-methoxycarbonyl-3-[2-(3-dimethylaminopropionamido)phenyl]thiourea hydrochloride],98,1,20,"worm damage ([3]; Test 1, 1000 mg/kg oral): worm damage; worm damage ([1]; rats, Test 2, 1000 mg/kg oral): worm damage"
CCCCc1ccc(NC(=O)CN(C)C)c(NC(=S)NC(=O)OCC)c1 [1-ethoxycarbonyl-3-(5-n-butyl-2-dimethylaminoacetamidophenyl)thiourea hydrochloride],88,0.1,30,–
C#CCOC(=O)NC(=S)Nc1ccccc1N [1-propargyloxycarbonyl-3-(2-aminophenyl)thiourea],100,1,76,"worm damage ([3]; Test 1, 1000 mg/kg oral): worm damage"
CCCCc1ccc(NC(=S)NC(=O)OCC)c(N)c1 [1-ethoxycarbonyl-3-(2-amino-4-n-butylphenyl)-thiourea],–,1,–,–
COC(=O)NC(=S)Nc1ccccc1N [1-methoxycarbonyl-3-(2-aminophenyl)thiourea hydrochloride],100,–,100,–
CCOC(=O)NC(=S)Nc1ccccc1NC(=O)CN(C)C [1-ethoxycarbonyl-3-(2-dimethylaminoacetamidophenyl)thiourea hydrochloride],98,0.1,85,"inhibition in vivo at 125 mg/kg ([1]; Nippostrongylus brasiliensis, ip, 144 h, rats, Test 2, 125 mg/kg intraperitoneal, read-out: Percentage reduction in N.brasiliensis load): 85%; inhibition in vivo at 100 mg/kg ([1]; Nippostrongylus brasiliensis, sc, 144 h, rats, Test 2, 100 mg/kg subcutaneous, read-out: Percentage reduction in N.brasiliensis load): 76%"
CCOC(=O)NC(=S)Nc1ccc(Cl)cc1N [1-ethoxycarbonyl-3-(2-amino-4-chlorophenyl)thiourea],–,10,–,–
CCOC(=O)NC(=S)Nc1ccccc1NC(=O)C[N+](C)(C)C [1-ethoxycarbonyl-3-(2-trimethylammoniumacetamidophenyl)thiourea iodide],60,0.1,–,"worm damage ([1]; rats, Test 2, 1000 mg/kg oral): worm damage"
CCOC(=O)NC(=S)Nc1ccccc1NC(=O)CN(C)Cc1ccccc1 [1-ethoxycarbonyl-3-[2-(N-benzyl-N-methylaminoacetamido)-phenyl]thiourea hydrochloride],99,0.1,50,"worm damage ([3]; Test 1, 1000 mg/kg oral): worm damage; worm damage ([1]; rats, Test 2, 1000 mg/kg oral): worm damage"
